Measurements taken from EP3383875B1, “3-PYRIMIDINYL PYRROLO [2,3-B] PYRIDINE AS ANTICANCER AGENTS AND THE PROCESS FOR THE PREPARATION THEREOF” (Council Of Scientific & Industrial Research, priority 2015, dated 2017).
Read-outs that look alike come from different tables or passages of the source.

How the values were obtained:
[1] = test system: MCF-7; test: MTT assay on cancer cell line MCF-7; format: cell-based, Human; conditions: Homo sapiens
Procedure: (§1) Cell culture, growth conditions and treatments. […] Different molecules were dissolved in DMSO and were delivered to cell cultures in complete medium.

[2] = target: CDK-2/cyclin A (Homo sapiens, UniProt P24941); test: CDK inhibition assay, CDK-2/cyclin A against Histone HI, 33P-ATP; format: biochemical; conditions: at 500 nM
Method in brief: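 CDK-2/cyclin A (5-20 mU) phosphorylating Histone HI (1 mg/ml) in 50 mM Hepes pH 7.5, 100 mM NaCl, 10 mM Mg acetate, 0.02 mM [33P-γ-ATP], 30 min at room temperature. Stopped with orthophosphoric acid, captured on P81 filters for radiometric readout.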

[3] = test system: MDA-MB435; test: MTT assay on cancer cell line MDA-MB435; format: cell-based, Human; conditions: Homo sapiens, MDA-MB-435
Procedure: as §1

[4] = test system: PC-3; test: MTT assay on cancer cell line PC-3; format: cell-based, human; conditions: Homo sapiens
Procedure: as §1

[5] = target: CDK-9/Cyclin T1 (Homo sapiens, UniProt P50750); test: CDK inhibition assay, CDK-9/Cyclin T1 against substrate peptide, 33P-ATP; format: biochemical; conditions: at 500 nM
Procedure: (50-1000 cpm/pmole) and incubated for 30 min at room temperature. Assays were stopped by addition of 5 µl of 0.5 M (3%) orthophosphoric acid and then harvested onto P81 Unifilter plates with a wash buffer of 50 mM orthophosphoric acid.

[6] = test system: HCT-116; test: MTT assay on cancer cell line HCT-116; format: cell-based, human; conditions: Homo sapiens
Procedure: as §1

[7] = test system: SHSY-5Y; test: MTT assay on cancer cell line SHSY-5Y; format: cell-based, human; conditions: Homo sapiens, SH-SY5Y
Procedure: as §1

[8] = MCF7, MCF-7, Table 8, read-out: In vitro cell inhibition, % of inhibition, MCF-7
[9] = MCF7, read-out: inhibition against MCF-7 cell lines
[10] = Table-7, read-out: In vitro CDK2 % of inhibition
[11] = read-out: inhibition against CDK2
[12] = MDA-MB435, at 10µM, Table 8, read-out: In vitro cell inhibition, % of inhibition, MDA-MB435
[13] = Table 8, read-out: In vitro cell inhibition, % of inhibition, PC-3
[14] = Table-7, read-out: In vitro CDK9 % of inhibition
[15] = read-out: inhibition against CDK9
[16] = at 10µM, Table 8, read-out: In vitro cell inhibition, % of inhibition, HCT-116
[17] = SHSY-5Y, Table 8, read-out: In vitro cell inhibition, % of inhibition, SHSY-5Y
[18] = read-out: inhibition against SHSY-5Y cell lines
[19] = MCF7, MCF-7, Table 9 (for reference), read-out: In vitro cell inhibition, % of inhibition, MCF-7
[20] = MDA-MB435, at 10µM, Table 9 (for reference), read-out: In vitro cell inhibition, % of inhibition, MDA-MB435
[21] = Table 9 (for reference), read-out: In vitro cell inhibition, % of inhibition, PC-3
[22] = at 10µM, Table 9 (for reference), read-out: In vitro cell inhibition, % of inhibition, HCT-116
[23] = SHSY-5Y, Table 9 (for reference), read-out: In vitro cell inhibition, % of inhibition, SHSY-5Y

CDK-9/Cyclin T1, sequence (P50750 whole entry): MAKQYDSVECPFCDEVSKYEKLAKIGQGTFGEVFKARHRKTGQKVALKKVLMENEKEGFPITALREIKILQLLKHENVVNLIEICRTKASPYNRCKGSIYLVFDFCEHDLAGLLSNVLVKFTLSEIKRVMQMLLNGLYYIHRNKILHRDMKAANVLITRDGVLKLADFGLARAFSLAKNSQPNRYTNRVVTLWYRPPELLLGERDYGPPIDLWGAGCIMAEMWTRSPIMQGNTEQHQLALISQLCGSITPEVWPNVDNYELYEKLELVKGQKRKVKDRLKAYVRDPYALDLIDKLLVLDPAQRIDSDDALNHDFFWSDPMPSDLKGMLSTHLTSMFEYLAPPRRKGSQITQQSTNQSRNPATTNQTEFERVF
CDK-9/Cyclin T1, sequence (O60563 whole entry partner): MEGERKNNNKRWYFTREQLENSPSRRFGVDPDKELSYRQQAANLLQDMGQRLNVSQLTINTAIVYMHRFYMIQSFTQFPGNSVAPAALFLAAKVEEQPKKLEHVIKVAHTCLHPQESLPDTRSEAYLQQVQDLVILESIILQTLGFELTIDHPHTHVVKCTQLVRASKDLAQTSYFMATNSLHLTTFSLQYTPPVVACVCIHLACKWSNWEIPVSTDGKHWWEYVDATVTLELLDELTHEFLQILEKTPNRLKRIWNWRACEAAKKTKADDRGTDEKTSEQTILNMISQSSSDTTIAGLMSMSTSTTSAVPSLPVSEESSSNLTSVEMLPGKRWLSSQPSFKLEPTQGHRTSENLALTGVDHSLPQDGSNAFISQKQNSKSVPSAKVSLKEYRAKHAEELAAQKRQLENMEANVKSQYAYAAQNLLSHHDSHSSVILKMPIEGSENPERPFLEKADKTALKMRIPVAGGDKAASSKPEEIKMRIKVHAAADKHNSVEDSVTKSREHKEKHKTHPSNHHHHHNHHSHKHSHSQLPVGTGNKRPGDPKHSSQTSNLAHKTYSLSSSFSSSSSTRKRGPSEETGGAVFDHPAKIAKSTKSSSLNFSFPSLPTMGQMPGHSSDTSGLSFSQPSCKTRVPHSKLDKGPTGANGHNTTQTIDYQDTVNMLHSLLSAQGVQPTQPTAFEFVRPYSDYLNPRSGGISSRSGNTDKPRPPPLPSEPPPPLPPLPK

| Structure (SMILES) | inhibition at 10 µM [1, 8] [%] | inhibition at 10 µM [1, 9] [%] | inhibition at 0.5 µM [2, 10] [%] | inhibition at 0.5 µM [2, 11] [%] | inhibition at 10 µM [3, 12] [%] | inhibition at 10 µM [4, 13] [%] | inhibition at 0.5 µM [5, 14] [%] | inhibition at 0.5 µM [5, 15] [%] | inhibition at 10 µM [6, 16] [%] | inhibition at 10 µM [7, 17] [%] | inhibition at 10 µM [7, 18] [%] | inhibition at 10 µM [1, 19] [%] | inhibition at 10 µM [3, 20] [%] | inhibition at 10 µM [4, 21] [%] | inhibition at 10 µM [6, 22] [%] | inhibition at 10 µM [7, 23] [%] | inhibition at 0.5 µM ([2]; Table-6, read-out: In vitro CDK2 % of inhibition) [%] | inhibition at 10 µM ([3]; at 10 µM, read-out: inhibition against MDAMB-435 cell lines) [%] | inhibition at 0.5 µM ([5]; Table-6, read-out: In vitro CDK9 % of inhibition) [%] | inhibition at 10 µM ([6]; at 10 µM, read-out: inhibition against HCT-116 cell lines) [%] |
| --- | --- | --- | --- | --- | --- | --- | --- | --- | --- | --- | --- | --- | --- | --- | --- | --- | --- | --- | --- | --- |
| COc1ccc(-c2cnc3[nH]cc(-c4ccnc(NC5CCCCCC5)n4)c3c2)cc1 [1A51, N-cycloheptyl-4-(5-(4-methoxyphenyl)-1H-pyrrolo[2,3-b]pyridin-3-yl)pyrimidin-2-amine] | > 70 | > 70 | > 70 | > 70 | < 50 | < 50 | > 70 | > 70 | > 50 | > 50 |  |  |  |  |  |  |  |  |  |  |
| Fc1ccc(-c2cnc3[nH]cc(-c4ccnc(NCCc5ccccc5)n4)c3c2)cc1 [1B2, 4-(5-(4-fluorophenyl)-1H-pyrrolo[2,3-b]pyridin-3-yl)-N-phenethylpyrimidin-2-amine] | > 50 |  | > 50 | > 50 | > 50 | < 50 | > 50 | > 50 | > 50 | > 70 | > 70 |  |  |  |  |  |  |  |  |  |
| Nc1nccc(-c2c[nH]c3ncc(-c4cccc5ccccc45)cc23)n1 [1C14, 4-(5-(naphthalen-1-yl)-1H-pyrrolo[2,3-b]pyridin-3-yl)pyrimidin-2-amine] |  | > 50 | > 70 | > 70 |  |  | > 70 | > 70 |  |  |  | > 50 | > 50 | > 70 | > 70 | > 50 |  |  |  |  |
| c1cncc(-c2cnc3[nH]cc(-c4ccnc(NC5CCCCCC5)n4)c3c2)c1 [1A55, N-cycloheptyl-4-(5-(pyridin-3-yl)-1H-pyrrolo[2,3-b]pyridin-3-yl)pyrimidin-2-amine] | < 50 | < 50 | > 70 | > 70 | > 50 | > 50 | > 70 | > 70 | > 50 | > 70 | > 70 |  |  |  |  |  |  |  |  |  |
| Clc1ccc(-c2cnc3[nH]cc(-c4ccnc(NCCc5ccccc5)n4)c3c2)cc1 [1B12, 4-(5-(4-chlorophenyl)-1H-pyrrolo[2,3-b]pyridin-3-yl)-N-phenethylpyrimidin-2-amine] | > 50 |  | > 70 | > 70 | < 50 | > 70 | > 70 | > 70 | > 50 | > 70 | > 70 |  |  |  |  |  |  |  |  |  |
| Cc1cccc(-c2cnc3[nH]cc(-c4ccnc(N)n4)c3c2)c1 [1C7, 4-(5-(m-tolyl)-1H-pyrrolo[2,3-b]pyridin-3-yl)pyrimidin-2-amine] |  | > 50 | > 70 | > 70 |  |  | > 70 | > 70 |  |  | > 70 | > 50 | > 70 | > 50 | > 70 | > 70 |  |  |  |  |
| c1ccc2c(-c3cnc4[nH]cc(-c5ccnc(NC6CC6)n5)c4c3)cccc2c1 [1A14, N-cyclopropyl-4-(5-(naphthalen-1-yl)-1H-pyrrolo[2,3-b]pyridin-3-yl)pyrimidin-2-amine] | > 70 | > 70 |  | > 50 | > 70 | > 70 |  | > 50 | > 70 | > 70 | > 70 |  |  |  |  |  | > 50 | > 70 | > 50 | > 70 |
